Experimental data published in EP4458353A1, “ANTICARIOGENIC SYNERGETIC COMPOSITION FOR ORAL CARE” (SkyLab AG, priority 2023, dated 2024).
Values after ≈ are worked out from the molar mass of the structure shown. Where two headings read alike, the source gives them in different places.

Tests used:
Format in all cases: cell-based
[1] = system: Streptococcus mutans No 22081; assay: Growth of planktonic culture in liquid nutritive medium (CFU count after 5 h); conditions: S. mutans planktonic culture; 1 mg/mL; 5 h incubation
Protocol: Example ? 3. Antibacterial activity of naringenin, guava leaf extract and lysozyme was assessed from the growth pattern of the reference strain Streptococcus mutans No 22081 (UNU Collection under I. I. Mechnikov Research Institute if Vaccines and sera) in liquid nutritive medium according to the procedure: • 1) Prepare the heart-brain broth (DM106D, Mast Group Ltd., U.K.) and Columbian agar supplemented with defibrinated blood (OOO "GEM" Cat. No BP-023) in accordance with the manufacturer's instruction. • 2) Using microbiological loop prepare the suspension (at concentration 1.5·10^8 CFU/mL) of 24 hour agar culture of S. mutans in the sterile buffered saline (BS) under visual control with McFarland standard 0.5. […] Prepare the composition of naringenin 0.33 mg/mL, lysozyme 0.33 mg/mL, and guava leaf extract 0.33 mg/mL. • 4) Put the plate with the samples into the incubator with 5% CO2 atmosphere, and incubate at 37°C for 5 h on shaking apparatus. • 5) After the 5 h incubation reinoculate the agar nutritive medium with the planktonic S. mutans culture to count CFU per 1 mL of medium. • 6) Perform optical density (OD) measurements using multimodal microplate reader at the wavelength 620 nm before the incubation (OD0) and then after the culture growth for 5 h ODt=5). […]

Streptococcus mutans [2] = assay: Minimum biofilm inhibitory concentration (MBIC), crystal violet staining; conditions: S. mutans
Protocol: Group of examples No 4 - 6. Anti-biofilm activity of the substance or of the composition of substances was assessed from minimum biofilm inhibitory concentration (MBIC) and from the rate of biofilm formation on hydroxyapatite disks.
Reference strains Streptococcus mutans and S. Sobrinus were used as the bacterial models.
Example No 4. MBIC as the measure of the substance effect on the bacterial biofilm is equal to minimum concentration inhibiting the biofilm formation or disruption of already formed biofilm during 24 hour incubation.
MBIC of individual components of the composition, specifically, naringenin, guava leaf CO2 extract, and enzymes lysozyme and labiase can be determined according to the procedure: • 1) All stages of nutritive medium preparation, preparation and incubation of bacterial cultures in 96-well microtiter plates with the test composition of the substances added into nutritive medium were as described in Example 1. • 2) All controls for the culture growth, for purity of nutritive medium and for solvents were as described in Example 1. • 3) Incubate the plates at 37 °C for 24 ± 4 h without the use the orbital shaker. • 4) Stain the bacterial biofilm accumulated on bottom of the plate wells with crystal violet. For this purpose remove the planktonic culture from the plate wells after 24 h incubation and wash with two portions of phosphate-buffered saline (PBS, pH 7.4) to remove remaining planktonic culture. Then dry the plate for 12-15 hours. Add 100 µL of 0.5% crystal violet solution (Sigma-Aldrich, USA), dissolved in 96% ethanol followed by incubation for 20 minutes. After removal of crystal violet solution from the wells wash the plate with 3-4 portions of PBS. After drying add […] of 96% ethanol into the wells to elute the crystal violet, which has bound to the biofilm. • 5) Shake the plate on the orbital shaker for 2 minutes at 37 °C and then measure optical density (OD) at the wavelength of 550nm using multimodal microplate reader against the blank (the well, where the sterile medium LB was incubated and then exposed to all staining manipulations). Since the serial dilution method with 2-fold dilution steps is used for MBIC determination, the difference between the adjacent dilution is considered as non-significant, and MBIC is defined as the median value calculated for 5 independent biological replicates of the experiment. • 6) The following concentrations were tested: naringenin and guava leaf extract at concentrations 1.6, 0.8, 0.4, 0.2, 0.1, 0.05 mg/mL; lysozyme and labiase at concentrations 4.0, 2.0, 1.0, 0.5, 0.25, 0.125 mg/mL. Well-known antibacterial components were used as controls: chlorohexidine bigluconate at concentrations 64, 32, 16, 8, 4 µg/mL; zinc gluconate at concetrations 5.0, 2.5, 1.25, 0.6, 0.3, 0.15 mg/mL.

Streptococcus mutans [3] = assay: Minimum inhibitory concentration (MIC), serial two-fold dilution with resazurin test; conditions: Streptococcus mutans, S. mutans
Streptococcus sobrinus = assay: as above; conditions: Streptococcus sobrinus, S. sobrinus
[4] = 24 h at 37 °C, read-out: MIC value in individual replicate Replicate 1
[5] = 24 h at 37 °C, read-out: MIC value in individual replicate Replicate 2
[6] = 24 h at 37 °C, read-out: MIC value in individual replicate Replicate 3
[7] = 24 h at 37 °C, read-out: MIC value in individual replicate Replicate 4
[8] = 24 h at 37 °C, read-out: MIC value in individual replicate Replicate 5
[9] = median of 5 replicates, read-out: MIC Median value

## O=C1C[C@@H](c2ccc(O)cc2)Oc2cc(O)cc(O)c21 [Naringenin, naringenin]
[1]
  % of CFU obtained for control: 4.8%
  ∑ CFU, mL: 4.3x10^7 CFU, mL
Streptococcus mutans [2]; 24 h incubation
  MBIC in indicvdual replicates Replicate 1: 0.8 mg/mL
  MBIC in indicvdual replicates Replicate 2: 0.8 mg/mL
  MBIC in indicvdual replicates Replicate 3: 0.8 mg/mL
  MBIC in indicvdual replicates Replicate 4: 0.4 mg/mL
  MBIC in indicvdual replicates Replicate 5: 0.8 mg/mL
Streptococcus mutans [2]; median of 5 replicates
  MBIC Median value: 0.8 mg/mL
Streptococcus mutans [3]; [4]
  MIC: > 1600 µg/mL
Streptococcus mutans [3]; [5]
  MIC: > 1600 µg/mL
Streptococcus mutans [3]; [6]
  MIC: 800 µg/mL (≈ 2.94 mM)
Streptococcus mutans [3]; [7]
  MIC: 400 µg/mL (≈ 1.47 mM)
Streptococcus mutans [3]; [8]
  MIC: 800 µg/mL (≈ 2.94 mM)
Streptococcus mutans [3]; [9]
  MIC: 800 µg/mL (≈ 2.94 mM)
Streptococcus sobrinus; [4]
  MIC: > 1600 µg/mL
Streptococcus sobrinus; [5]
  MIC: > 1600 µg/mL
Streptococcus sobrinus; [6]
  MIC: > 1600 µg/mL
Streptococcus sobrinus; [7]
  MIC: > 1600 µg/mL
Streptococcus sobrinus; [8]
  MIC: > 1600 µg/mL
Streptococcus sobrinus; [9]
  MIC: > 1600 µg/mL
